The source of these data is US4670444A, “7-amino-1-cyclopropyl-4-oxo-1, 4-dihydro-quinoline-and naphthyridine-3-carboxylic acids and antibacterial agents containing these compounds” (Bayer Aktiengesellschaft, priority 1980, dated 1987).

Common to all, as to type: cell-based
Experiment [1] deals with Staphylococcus aureus 133. The experiment is described as follows: Agar dilution test, DST medium. The note with it: 1-2 × 10^3 germs/plate. On the technique in general: In agar dilution the substance is mixed into plates at graded concentrations.
Source text: (§2) DST (dexhase sensitivity test) medium; 1-2 × 10^3 germs/plate
The test system of experiment [2] is E. coli A 261. The experiment is described as follows: Agar dilution test, DST medium. The conditions noted are these: 1-2 × 10^3 germs/plate.
Source text: as §2
Experiment [3] deals with E. coli Neum. Briefly: Agar dilution test, DST medium. The note with it: 1-2 × 10^3 germs/plate.
Source text: as §2
Experiment [4] has as its system Klebsiella 8085. The experiment is described as follows: Agar dilution test, DST medium. The conditions noted are these: 1-2 × 10^3 germs/plate.
Source text: as §2
In experiment [5] the test system is Proteus 1017. The experiment is described as follows: Agar dilution test, DST medium. The note with it: 1-2 × 10^3 germs/plate.
Source text: as §2
Experiment [6] has as its system Pseudomonas aeruginasa. The experiment is described as follows: Agar dilution test, DST medium. The note with it: 1-2 × 10^3 germs/plate.
Source text: as §2
Experiment [7] has as its system Escherichia coli 103400. Briefly: Agar dilution test, Denley multipoint inoculation method. The source says: (§1) | ^x Denley multipoint inoculation method
Experiment [8] deals with Escherichia coli 455/7. Described as above.
Source text: as §1

The test system of experiment [9] is Escherichia coli T 7. Described as above. The note with it: T7, read-out: Minimum inhibitory concentrations in an agar dilution test.
Source text: as §1

The test system of experiment [10] is Klebsiella 63. The experiment is described as above.
Source text: as §1

The test system of experiment [11] is Proteus 8228. Described as above. The conditions noted are these: read-out: Minimum inhibitory concentrations in an agar dilution test.
Source text: as §1

For experiment [12], the system named is Pseudomonas 7167. The experiment is described as above. The conditions noted are these: read-out: Minimum inhibitory concentrations in an agar dilution test.
Source text: as §1

Experiment [13] deals with Salmonella 683. Described as above. The note with it: read-out: Minimum inhibitory concentrations in an agar dilution test.
Source text: as §1

Where [14] appears, read: Escherichia coli 103400, Denley multipoint inoculation method, read-out: Minimum inhibitory concentrations in an agar dilution test.
The mark [15] stands for this setting: Escherichia coli 455/7, Denley multipoint inoculation method, read-out: Minimum inhibitory concentrations in an agar dilution test.
Setting [16] is: Klebsiella 63, Denley multipoint inoculation method, read-out: Minimum inhibitory concentrations in an agar dilution test.
[17] abbreviates: Proteus 8228, Denley multipoint inoculation method.

Values after ≈ are worked out from the molar mass of the structure shown. Like-named read-outs stand apart in the source and are kept apart here.

In the case of `O=C(O)c1cn(C2CC2)c2cc(N3CCNCC3)ncc2c1=O`, the “antibacterial action in agar dilution test” value (shortened to “antibacterial action”) is 8 in experiment [1]; 1 in experiment [2]; 1 in experiment [3]; 1 in [4]; 0.5 in [5]; 4 in experiment [6].

Consider `CCn1cc(C(=O)O)c(=O)c2cc(F)c(N3CCNCC3)cc21`, for which the “antibacterial action” value in [1] was determined as 1; in experiment [2], 0.125; in experiment [3], 0.25; in [4], 0.25; in experiment [5] it was 0.06; in experiment [6], 1.

In the case of `O=C(O)c1cn(C2CC2)c2cc(N3CCNCC3)c(F)cc2c1=O` [1-cyclopropyl-6-fluoro-1,4-dihydro-4-oxo-7-piperazino-quinoline-3-carboxylic acid], the “antibacterial action” value in experiment [1] is recorded as 0.25-0.5; in experiment [2] it was 0.06; in experiment [3], 0.06; in [4], 0.06; in experiment [5], 0.03; in experiment [6], 0.5.

In the case of `CN1CCN(c2cc3c(cn2)c(=O)c(C(=O)O)cn3C2CC2)CC1` [Example 1, 7-(4-Methylpiperazino)-1-cyclopropyl-4-oxo-1,4-dihydro-1,6-naphthyridine-3-carboxylic acid], the MIC worked out at 0.25 µg/mL (≈ 0.761 µM) in [7] (setting [14]); 128 µg/mL (≈ 390 µM) in [8] (setting [15]); 0.25 µg/mL (≈ 0.761 µM) in experiment [9]; 1 µg/mL (≈ 3.05 µM) in experiment [10] (setting [16]); 2 µg/mL (≈ 6.09 µM) in experiment [11] (setting [17]); 8 µg/mL (≈ 24.4 µM) in [12]. Moreover, in experiment [13], the MIC came to 0.5 µg/mL (≈ 1.52 µM).

Take `CCn1cc(C(=O)O)c(=O)c2ccc(C)nc21` [Nalidixic acid, 1-ethyl-7-methyl-1,8-naphthyrid-4-one-3-carboxylic acid]: the MIC turned out to be 2 µg/mL (≈ 8.61 µM) in experiment [7] (Escherichia coli, 103400, read-out: Minimum inhibitory concentrations in an agar dilution test); 256 µg/mL (≈ 1100 µM) in experiment [8] (Escherichia coli, 455/7, read-out: Minimum inhibitory concentrations in an agar dilution test); 1 µg/mL (≈ 4.31 µM) in experiment [9]; 4 µg/mL (≈ 17.2 µM) in experiment [10] (Klebsiella, 63, read-out: Minimum inhibitory concentrations in an agar dilution test); 8 µg/mL (≈ 34.4 µM) in [11]; 64 µg/mL (≈ 276 µM) in [12]. In addition, in [13], the MIC amounted to 4 µg/mL (≈ 17.2 µM).

Consider `CCn1cc(C(=O)O)c(=O)c2cnc(N3CCNCC3)nc21` [Pipemidic acid, 2-piperazino-8-ethyl-5-oxo-5,8-dihydropyrido 2,3-d pyrimidine-6-carboxylicacid], for which the MIC in [7] (setting [14]) was 1 µg/mL (≈ 3.3 µM); in [8] (setting [15]) it was 128 µg/mL (≈ 422 µM); in experiment [9] it was 2 µg/mL (≈ 6.59 µM); in experiment [10] (setting [16]), 2 µg/mL (≈ 6.59 µM); in experiment [11] (setting [17]), 4 µg/mL (≈ 13.2 µM); in experiment [12], 16 µg/mL (≈ 52.7 µM). In addition, the MIC in experiment [13] amounted to 2 µg/mL (≈ 6.59 µM).
